How the values were obtained:
KB-Gem = assay: Cytotoxicity, KB-Gem cells; type: cell-based, human; settings: Homo sapiens, gemcitabine-resistant, read-out: IC50, mean ± SEM
Description: (§1) All cell lines were acquired from the American Type Culture Collection (Manassas, Va., USA). Cells were maintained in RPMI 1640 medium (Mediatech) with 10% fetal bovine serum, 2 mM glutamine, and 100 U of penicillin and 100 μg of streptomycin per ml of medium (Sigma) at 37° C. in 5% CO2. To isolate HCC1437+BRCA1 cells, parental HCC1937 cells were transfected with pcDNA3.1 plasmid expressing full-length BRCA1 cDNA. Stable transfectant clones were selected and used for drug sensitivity assays. For stable transfection, cells at 30-40% confluence were incubated overnight with […] of plasmid DNA, using FUGENE® 6 transfectin reagent (Roche Molecular Biochemical, Monza, Italy) according to the manufacturer's instructions. Cells were then selected in puromycin (1 μg/ml) (Invitrogen life Technologies, La Jolla, Calif., USA.) After 20 to 30 days, viable puromycin-resistant colonies from HCC1937 transfections were expanded and screened. The clones that stably expressed […] and retained growth potential were assayed for BRCA1 expression by Western blot analysis. By Western blot analysis, we evaluated the restoration of BRCA1 expression in the puromycin-resistant cDNA/transfectant cells.
(§2) The MTT cytotoxicity assay was performed by incubating with MTT and monitoring the MTT formazan formed by viable cells with a microplate reader at a wavelength of 560 nm; the survival, ratio was determined using the formula: (Atest−Ablank)/(Acontrol−Ablank)×100%. The cytotoxicity was determined in 96-well plates using the semiautomatic fluorescence-based Digital Imaging Microscopy System (DIMSCAN). DIMSCAN uses digital imaging microscopy to quantify viable cells, which selectively accumulate FDA (fluorescein diacetate; Alfa Aesar, Ward Hill, Mass.). DIMSCAN is capable of measuring cytotoxicity over a 4 log dynamic range by quantifying total fluorescence per well (which is proportional to the number of viable cells) after elimination of the background fluorescence by digital thresholding and eosin Y (Mallinckrodt Baker, Center Valley, Pa.) quenching. Cells were seeded into 96-well plates in 100 μL of complete medium at 2,000 to 5,000 cells per well depending on cell line growth rate. After overnight incubation, test compound was added to each well at various concentrations in 50 μL of culture medium. After incubation with the drugs for 96 hours at 37° C., FDA (final concentration: […]) and eosin Y [final concentration: 0.1% (w/v)] were added to each well and the cells were incubated for an additional 20 minutes at 37° C. Total fluorescence per well was then measured using DIMSCAN, and the results were expressed as the ratio of the fluorescence in treated wells to the fluorescence in untreated wells (survival fraction).

TOV112D = assay: Cytotoxicity, TOV112D cells; type: cell-based, human; settings: Homo sapiens, read-out: IC50, mean ± SEM
Description: as §1, §2

MCF-7 = assay: Cytotoxicity, MCF-7 cells; type: cell-based, human; settings: Homo sapiens, MCF7; MCF-7, ER+ PR(+)
Description: as §1
(§3) The MTT cytotoxicity assay was performed by incubating with MTT and monitoring the MTT formazan formed by viable cells with a microplate reader at a wavelength of 560 nm; the survival, ratio was determined using the formula: (Atest−Ablank)/(Acontrol−Ablank)×100%. The cytotoxicity was determined in 96-well plates using the semiautomatic fluorescence-based Digital Imaging Microscopy System (DIMSCAN). DIMSCAN uses digital imaging microscopy to quantify viable cells, which selectively accumulate FDA (fluorescein diacetate; Alfa Aesar, Ward Hill, Mass.). DIMSCAN is capable of measuring cytotoxicity over a 4 log dynamic range by quantifying total fluorescence per well (which is proportional to the number of viable cells) after elimination of the background fluorescence by digital thresholding and eosin Y (Mallinckrodt Baker, Center Valley, Pa.) quenching. […]

NHEJ pathway = assay: NHEJ DNA repair, GFP-based chromosomal reporter EJ5-GFP; type: cell-based; settings: EJ5-GFP reporter cells, 24 h
Description: The EJ2 cells were generated to evaluate Alt-NHEJ through monitoring the fluorescence intensity of GFP and EJ5 cells were used to determine NJEJ as described previously. (23) Cells were seeded into 6-well plate and treated with COH29 or cisplatin at different concentration for 24 hours. The cells were then trypsinized, washed, and analyzed by flow cytometry.

KB-7D = assay: Cytotoxicity, KB-7D cells; type: cell-based, human; settings: Homo sapiens, KB7D, cisplatin-resistant, read-out: IC50, mean ± SEM
Description: as §1, §2

OVCAR-3 = assay: Cytotoxicity, OVCAR-3 cells; type: cell-based, human; settings: Homo sapiens, read-out: IC50, mean ± SEM
Description: as §1, §2

OVCAR-4 = assay: Cytotoxicity, OVCAR-4 cells; type: cell-based, human; settings: Homo sapiens, read-out: IC50, mean ± SEM
Description: as §1, §2

HCC1937 + BRCA1 = assay: Cytotoxicity, HCC1937+BRCA1 cells; type: cell-based, human; settings: Homo sapiens; HCC1937 + BRCA1, triple negative; COH29 72 h
Description: as §1, §3

PARP1 = target: T1, PARP1 (Homo sapiens, UniProt P09874); assay: PARP1 activity in lysates of treated cells (chemiluminescent assay kit); type: cell-based
T1 construct: endogenous in cells; host or cells: HCC1937, HCC1937+BRCA1, UWB1.289, UWB1.289+BRCA1 (human breast / ovarian cancer lines)
Description: The PARP1 activity was determined using the PARP1 Chemiluminscent Assay Kit (BPS Bioscience, San Diego) according to the manufacturer's protocol. Briefly, the ribosylation reaction was carried out with activated DNA in PARP assay buffer using test inhibitor, positive control, substrate control and blank reactions, for 1 hour at 25° C. Detection was by streptavidin-HRP with chemiluminescent substrate A and B read in a luminometer.

T1 sequence (P09874 whole entry): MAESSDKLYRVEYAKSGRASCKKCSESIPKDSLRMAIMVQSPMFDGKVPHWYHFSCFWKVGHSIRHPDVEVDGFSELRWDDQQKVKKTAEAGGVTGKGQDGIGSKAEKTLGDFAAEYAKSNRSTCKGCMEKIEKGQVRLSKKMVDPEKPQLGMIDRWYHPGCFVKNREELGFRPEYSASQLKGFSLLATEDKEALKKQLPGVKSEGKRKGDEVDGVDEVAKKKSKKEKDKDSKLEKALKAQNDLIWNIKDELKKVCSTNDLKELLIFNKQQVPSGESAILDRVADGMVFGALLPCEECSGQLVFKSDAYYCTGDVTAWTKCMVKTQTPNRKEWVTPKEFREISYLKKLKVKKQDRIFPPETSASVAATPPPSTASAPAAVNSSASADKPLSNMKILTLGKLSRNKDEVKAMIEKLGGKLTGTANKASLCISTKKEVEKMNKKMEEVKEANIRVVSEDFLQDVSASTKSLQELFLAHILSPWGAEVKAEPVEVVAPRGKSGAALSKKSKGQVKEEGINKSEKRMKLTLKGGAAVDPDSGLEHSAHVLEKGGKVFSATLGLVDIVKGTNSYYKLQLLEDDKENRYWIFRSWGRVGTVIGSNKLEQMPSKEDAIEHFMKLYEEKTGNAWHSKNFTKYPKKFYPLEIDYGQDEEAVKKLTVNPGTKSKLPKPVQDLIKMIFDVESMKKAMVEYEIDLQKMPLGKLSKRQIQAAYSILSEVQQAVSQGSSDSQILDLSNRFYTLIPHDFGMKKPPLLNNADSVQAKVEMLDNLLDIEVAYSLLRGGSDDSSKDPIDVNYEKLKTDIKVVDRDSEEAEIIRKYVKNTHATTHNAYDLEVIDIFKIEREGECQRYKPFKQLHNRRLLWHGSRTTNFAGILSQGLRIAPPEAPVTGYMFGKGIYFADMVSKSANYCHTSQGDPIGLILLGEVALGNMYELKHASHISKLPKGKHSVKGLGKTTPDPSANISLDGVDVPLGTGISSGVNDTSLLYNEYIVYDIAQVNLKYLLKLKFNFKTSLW

PARP1 activity, treated cells (PARP1; HCC1937+BRCA1, 24 h, untreated 2336878 cps): 2041097 cps
PARP1 activity, treated cells (PARP1; HCC1937, 24 h, untreated 726177 cps): 427851 cps
PARP1 activity, treated cells (PARP1; UWB1.289+BRCA1, 8 h, untreated printed 145769 cps): 2129944 cps
PARP1 activity, treated cells (PARP1; UWB1.289, 8 h, untreated printed 113559 cps): 774611 cps
SMILES: O=C(Nc1nc(-c2ccc(O)c(O)c2)c(-c2ccccc2)s1)c1ccc(O)c(O)c1 [COH29]
IC50 (KB-Gem): 7.5 ± 0.29 µM
IC50 (TOV112D): 16 ± 2.08 µM
IC50 (MCF-7): 17.6 ± 1.54 µM
NHEJ repair efficiency (NHEJ pathway): little effect on NHEJ repair
IC50 (KB-7D): 8.48 ± 0.27 µM
IC50 (OVCAR-3): 20.5 ± 0.81 µM
IC50 (OVCAR-4): 11.2 ± 1.51 µM
IC50 (HCC1937 + BRCA1): 35 ± 3.63 µM
